Results as given in US11576902B2, “Inhibition of COVID-19 virus” (Ankh Life Sciences Limited, priority 2020, dated 2023).

Columns and labels:
[1] = system: SARS-CoV-2 isolate USA-WA1/2020; test: Virus plaque formation assay; format: cell-based
[2] = system: SARS-CoV-2 isolate USA-WA1/2020; test: RT-PCR assay of viral load (viral RNA copy number in cell supernatant); format: cell-based

Method for Vero-E6 cells: Cytotoxicity was measured using Promega™ CytoTox 96™ Nonradioactive Cytotoxicity Assay (cat #G1780, Promega, Madison, Wis., USA).
Cytotoxicity was measured using the Promega™ CytoTox 96™ Nonradioactive Cytotoxicity Assay kit (cat #G1780, Promega, Madison, Wis., USA) in 50 μL reactions and 96-well format (cat #161093, Thermo Fisher Scientific, Waltham, Mass., USA) according to the manufacturer's protocol, except we used 20 μL of 10× Lysis Solution per 100 μL of sample and incubated at 37° C. for 30 minutes to generate the maximum LDH release control. The assay was measured using a BioTeK Synergy™ HT plate reader (model #7091000, BioTek, Winooski, Vt., USA) at an optical density of 490 nm (OD490). Cytotoxicity was measured for ≤60 μM Cmpd. x for all three cell lines (LLC-MK2, Vero E6, and Calu-3). LLC-MK2 cells were assessed for cytotoxicity at 5 days, whereas Vero E6 and Calu-3 cells were assessed for cytotoxicity every 24 hours from 1-5 days.

COc1ccc2c3c([nH]c2c1)C(CCCC1=NCCc2c1[nH]c1cc(OC)ccc21)=NCC3 [GZ440-6, 1,3-bis(7-methoxy-4,9-dihydro-3H-pyrido[3,4-b]indol-1-yl)propane]
average cytotoxicity values (Vero-E6 cells): not elevated above controls
inhibition of plaque formation ([1]; 2.0 μM, 5.0 μM and 10.0 μM, Vero-E6 cells, 120 h after infection): negligible inhibition
inhibition of plaque formation ([1]; 20 μM and above, Student's T-Test vs. Camostat/E64d P<0.05): inhibition of plaque formation was significant
viral numbers (RNA copy number) ([2]; 40 μM (P<0.05), FIG. 3C): clear reduction in viral numbers
viral load (viral RNA levels) ([2]; higher concentrations (20 and 40 μM), 120 hours after infection): decreased viral load
viral load (viral RNA levels / viral numbers) ([2]; lower concentrations (2, 5, 10 μM), 120 hours after infection, listed as compound of the invention): no consistent reduction of viral numbers
